Molecular target: T1, wild-type HIV-1 protease (Human immunodeficiency virus type 1 group M subtype B, UniProt P04585)
T1 construct: Escherichia coli expressed wild-type HIV-1 protease protein; made in house; host or cells: Escherichia coli
Test: Assay for Inhibition of Microbial Expressed HIV Protease
Format: biochemical
Settings: E. coli expressed wild-type HIV-1 protease, peptide substrate cleavage, LC-MS readout; mean of at least two independent experiments; read-out: HIV Pr Enzyme HIV1 PR IC50
Protocol: Assay for Inhibition of Microbial Expressed HIV Protease
Inhibition of Escherichia coli expressed wild-type HIV-1 protease protein was carried out with a peptide substrate [Val-Ser-Gln-Asn-(βnaphtyl)Ala-Pro-Ile-Val]. The inhibitor compound was preincubated with HIV-1 protease enzyme in assay buffer (50 mM sodium acetate, pH 5.5, 100 mM NaCl, and 0.1% BSA) for 30 minutes at room temperature. Peptide substrate was added to […] in a total volume of 20 μL containing 20 pM HIV-1 protease (final) after which the reaction was incubated for 1 hour at 30° C. The reaction was quenched by the addition of formic acid and HIV protease inhibitor indinavir to 0.012% and 150 nM final concentrations, respectively. Product formation was determined after separation of product and substrate on a ZORBAX Eclipse XDB-C18 column (Aligent Technologies, Santa Clara, Calif., USA) connected to an API 4000™ mass spectrometer (AB Sciex, Pte. Ltd., Concord Ontario, Canada) with multiple reaction monitoring (transitions were 644.5/428.9 and 615.4/422.2 (M1/M3) for product and indinavir respectively). The extent of inhibition of the reaction was determined from the peak area of the products. Analysis of the products, independently synthesized, provided quantitation standards and confirmation of the product composition.

CC(C)CCC1(c2ccccc2)NC(=N)N(CCCCNC(=O)[C@@H](N)Cc2ccccc2)C1=O (stereo partly drawn) [Example 18, N-{4-[2-imino-4-(3-methylbutyl)-5-oxo-4-phenylimidazolidin-1-yl]butyl}-L-phenylalaninamide]
IC50: 25 nM

COC(=O)N[C@@H](Cc1ccccc1)C(=O)N[C@@H](C)CCCN1C(=N)NC(c2ccc(F)cc2)(c2ccc(F)cc2)C1=O [Example 11, N-{(1S)-4-[4,4-bis(4-fluorophenyl)-2-imino-5-oxoimidazolidin-1-yl]-1-methylbutyl}-N-alpha-(methoxycarbonyl)-L-phenylalaninamide]
IC50: 7 nM

CC[C@H](CCCNC(=O)[C@H](Cc1ccccc1)NC(=O)OC)N1C(=N)N[C@](CC(C)C)(c2ccccc2)C1=O [Example 55, N-{(4R)-4-[(4R)-2-imino-4-(2-methylpropyl)-5-oxo-4-phenylimidazolidin-1-yl]hexyl}-N-alpha-(methoxycarbonyl)-L-phenylalaninamide]
IC50: 532 nM

N=C1NC(c2ccccc2)(c2ccccc2)C(=O)N1CCCCNC(=O)[C@@H](N)Cc1ccncc1 [Example 10, N-[4-(2-imino-5-oxo-4,4-diphenylimidazolidin-1-yl)butyl]-3-pyridin-4-yl-L-alaninamide]
IC50: 34 nM

COC(=O)N[C@@H](CC1CCCCC1)C(=O)N[C@@H](C)CCCN1C(=N)N[C@](CC(C)C)(c2ccccc2)C1=O [Example 41, methyl [(1S)-1-(cyclohexylmethyl)-2-({(1S)-4-[(4R)-2-imino-4-(2-methylpropyl)-5-oxo-4-phenylimidazolidin-1-yl]-1-methylbutyl}amino)-2-oxoethyl]carbamate]
IC50: 31 nM

COC(=O)N[C@@H](Cc1ccc(F)cc1)C(=O)NCCCCN1C(=N)NC(c2ccccc2)(c2ccccc2)C1=O [Example 25, 4-fluoro-N-[4-(2-imino-5-oxo-4,4-diphenylimidazolidin-1-yl)butyl]-N-alpha-(methoxycarbonyl)-L-phenylalaninamide]
IC50: 17 nM

CC(C)CC1(c2ccccc2)NC(=N)N(CCCCNC(=O)[C@@H](N)Cc2ccccc2)C1=O (stereo partly drawn) [Example 16, N-{4-[2-imino-4-(2-methylpropyl)-5-oxo-4-phenylimidazolidin-1-yl]butyl}-L-phenylalaninamide]
IC50: 19 nM

COC(=O)N[C@@H](Cc1ccccc1)C(=O)NCCCCN1C(=N)NC(c2ccccc2)(c2ccccc2)C1=O [Example 4, N-[4-(2-imino-5-oxo-4,4-diphenylimidazolidin-1-yl)butyl]-N-alpha-(methoxycarbonyl)-L-phenylalaninamide]
IC50: 10 nM

COC(=O)N[C@@H](Cc1cccc2ccccc12)C(=O)N[C@@H](C)CCCN1C(=N)N[C@](CC(C)C)(c2ccccc2)C1=O [Example 38, methyl [(1S)-2-({(1S)-4-[(4R)-2-imino-4-(2-methylpropyl)-5-oxo-4-phenylimidazolidin-1-yl]-1-methylbutyl}amino)-1-(naphthalen-1-ylmethyl)-2-oxoethyl]carbamate]
IC50: 23 nM

COC(=O)N[C@@H](Cc1ccccc1Cl)C(=O)NC(CCCN1C(=N)N[C@](CC(C)C)(c2ccccc2)C1=O)CC1CC1 (stereo partly drawn) [Example 31, 2-chloro-N-{1-(cyclopropylmethyl)-4-[(4R)-2-imino-4-(2-methylpropyl)-5-oxo-4-phenylimidazolidin-1-yl]butyl}-N-alpha-(methoxycarbonyl)-L-phenylalaninamide_]
IC50: 80 nM

CC[C@@H](CCCN1C(=N)N[C@](CC(C)C)(c2ccccc2)C1=O)NC(=O)[C@H](Cc1ccccc1Cl)NC(=O)OC [Example 50, 2-chloro-N-{(1S)-1-ethyl-4-[(4R)-2-imino-4-(2-methylpropyl)-5-oxo-4-phenylimidazolidin-1-yl]butyl}-N-alpha-(methoxycarbonyl)-L-phenylalaninamide]
IC50: 6 nM

COC(=O)N[C@@H](Cc1ccccc1)C(=O)NCCC[C@@H](CCC1CC1)N1C(=N)N[C@](CC(C)C)(c2ccccc2)C1=O [Example 56, N-{(4R)-6-cyclopropyl-4-[(4R)-2-imino-4-(2-methylpropyl)-5-oxo-4-phenylimidazolidin-1-yl]hexyl}-N-alpha-(methoxycarbonyl)-L-phenylalaninamide]
IC50: 100 nM

CCOC(=O)N[C@@H](Cc1ccccc1)C(=O)NCCCCN1C(=N)NC(c2ccccc2)(c2ccccc2)C1=O [Example 6, N-alpha-(ethoxycarbonyl)-N-[4-(2-imino-5-oxo-4,4-diphenylimidazolidin-1-yl)butyl]-L-phenylalaninamide]
IC50: 4 nM

COC(=O)N[C@@H](Cc1ccccc1)C(=O)NCCCCN1C(=N)NC(CC(C)C)(c2ccccc2)C1=O (stereo partly drawn) [Example 17, N-{4-[2-imino-4-(2-methylpropyl)-5-oxo-4-phenylimidazolidin-1-yl]butyl}-N-alpha-(methoxycarbonyl)-L-phenylalaninamide]
IC50: 20 nM

COC(=O)N[C@@H](Cc1ccccc1)C(=O)NC(CCCN1C(=N)N[C@](CC(C)C)(c2ccccc2)C1=O)CC1CC1 (stereo partly drawn) [Example 29, N-{1-(cyclopropylmethyl)-4-[(4R)-2-imino-4-(2-methylpropyl)-5-oxo-4-phenylimidazolidin-1-yl]butyl}-N-alpha-(methoxycarbonyl)-L-phenylalaninamide]
IC50: 33 nM

N=C1NC(c2ccccc2)(c2ccccc2)C(=O)N1CCCCNC(=O)[C@@H](N)CCc1ccccc1 [Example 5, (2S)-2-amino-N-[4-(2-imino-5-oxo-4,4-diphenylimidazolidin-1-yl)butyl]-4-phenylbutanamide]
IC50: 6 nM

COC(=O)N[C@@H](Cc1ccc(F)cc1)C(=O)N[C@@H](C)CCCN1C(=N)N[C@](CC(C)C)(c2ccccc2)C1=O [Example 27, 4-fluoro-N-{(1S)-4-[(4R)-2-imino-4-(2-methylpropyl)-5-oxo-4-phenylimidazolidin-1-yl]-1-methylbutyl}-N-alpha-(methoxycarbonyl)-L-phenylalaninamide]
IC50: 27 nM

COC(=O)N[C@@H](Cc1ccccc1OC)C(=O)N[C@@H](C)CCCN1C(=N)N[C@](CC(C)C)(c2ccccc2)C1=O [Example 39, N-{(1S)-4-[(4R)-2-imino-4-(2-methylpropyl)-5-oxo-4-phenylimidazolidin-1-yl]-1-methylbutyl}-2-methoxy-N-alpha-(methoxycarbonyl)-L-phenylalaninamide]
IC50: 3 nM

COC(=O)N[C@@H](Cc1ccccc1)C(=O)N[C@H](CCCN1C(=N)N[C@](CC(C)C)(c2ccccc2)C1=O)C1CC1 [Example 36, N-{(1R)-1-cyclopropyl-4-[(4R)-2-imino-4-(2-methylpropyl)-5-oxo-4-phenylimidazolidin-1-yl]butyl}-N-alpha-(methoxycarbonyl)-L-phenylalaninamide]
IC50: 9 nM

COC(=O)N[C@@H](Cc1ccccc1)C(=O)NCCCCN1C(=N)NC(CCC(C)C)(c2ccccc2)C1=O (stereo partly drawn) [Example 19, N-{4-[2-imino-4-(3-methylbutyl)-5-oxo-4-phenylimidazolidin-1-yl]butyl}-N-alpha-(methoxycarbonyl)-L-phenylalaninamide]
IC50: 24 nM

COC(=O)N[C@@H](Cc1ccccn1)C(=O)NCCCCN1C(=N)NC(c2ccccc2)(c2ccccc2)C1=O [Example 12, methyl [(1S)-2-{[4-(2-imino-5-oxo-4,4-diphenylimidazolidin-1-yl)butyl]amino}-2-oxo-1-(pyridin-2-ylmethyl)ethyl]carbamate]
IC50: 21 nM

N=C1NC(c2ccccc2)(c2ccccc2)C(=O)N1CCCCNC(=O)[C@@H](N)Cc1cccnc1 [Example 9, N-[4-(2-imino-5-oxo-4,4-diphenylimidazolidin-1-yl)butyl]-3-pyridin-3-yl-L-alaninamide]
IC50: 31 nM

COC(=O)N[C@@H](Cc1ccccc1)C(=O)NCCC[C@H](C1CC1)N1C(=N)N[C@](CC(C)C)(c2ccccc2)C1=O [Example 51, N-{(4R)-4-cyclopropyl-4-[(4R)-2-imino-4-(2-methylpropyl)-5-oxo-4-phenylimidazolidin-1-yl]butyl}-N-alpha-(methoxycarbonyl)-L-phenylalaninamide]
IC50: 7 nM

COC(=O)N[C@@H](Cc1ccccc1)C(=O)N[C@@H](C)CCCN1C(=N)N[C@](CC(C)C)(c2ccccc2)C1=O [Example 28, N-{(1S)-4-[(4R)-2-imino-4-(2-methylpropyl)-5-oxo-4-phenylimidazolidin-1-yl]-1-methylbutyl}-N-alpha-(methoxycarbonyl)-L-phenylalaninamide]
IC50: 9 nM

COC(=O)N[C@@H](Cc1cccc(Cl)c1)C(=O)N[C@H](CCCN1C(=N)N[C@](CC(C)C)(c2ccccc2)C1=O)C(C)C [Example 43, 3-chloro-N-[(1R)-4-[(4R)-2-imino-4-(2-methylpropyl)-5-oxo-4-phenylimidazolidin-1-yl]-1-(1-methylethyl)butyl]-N-alpha-(methoxycarbonyl)-L-phenylalaninamide]
IC50: 5 nM

COC(=O)N[C@@H](Cc1ccccc1Cl)C(=O)N[C@@H](C)CCCN1C(=N)N[C@](CC(C)C)(c2ccccc2)C1=O [Example 34, 2-chloro-N-{(1S)-4-[(4R)-2-imino-4-(2-methylpropyl)-5-oxo-4-phenylimidazolidin-1-yl]-1-methylbutyl}-N-alpha-(methoxycarbonyl)-L-phenylalaninamide]
IC50: 18 nM
